Data published in patent US20260297080A1, “BICYCLIC COMPOUNDS AS CDK INHIBITORS” (BeOne Medicines I GmbH, priority 2022, published 2026).

Tests used:
CDK1/Cyclin B1 = CDK1/Cyclin B1 (Homo sapiens, UniProt P06493); test: CDK1/Cyclin B1 Biochemical Assay (TR-FRET), 0.015 mM ATP; conditions: 0.15 μM Rb (Ser780)-biotin substrate, pH7.0, 60 min preincubation, 120 min reaction, room temperature
Outline: (§1)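 Kinase preincubated with compound (0–10 μM) 60 min at room temperature, then reaction started with ATP and 0.15 μM Rb (Ser780)-biotin peptide and run 120 min in HEPES pH 7.0 buffer with 50 mM MgCl2. Phospho-Rb detected by Eu-cryptate anti-pRb(Ser780)/streptavidin-XL665 TR-FRET (665/620 nm ratio); IC50 from four-parameter logistic fit.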

CDK2/Cyclin E1 = CDK2/Cyclin E1 (Homo sapiens, UniProt P24941); test: CDK2/Cyclin E1 Biochemical Assay (TR-FRET), 0.060 mM ATP; conditions: 0.15 μM Rb (Ser780)-biotin substrate, pH7.0, 60 min preincubation, 120 min reaction, room temperature
Outline: as §1

Chain of CDK1/Cyclin B1 (P06493 whole entry): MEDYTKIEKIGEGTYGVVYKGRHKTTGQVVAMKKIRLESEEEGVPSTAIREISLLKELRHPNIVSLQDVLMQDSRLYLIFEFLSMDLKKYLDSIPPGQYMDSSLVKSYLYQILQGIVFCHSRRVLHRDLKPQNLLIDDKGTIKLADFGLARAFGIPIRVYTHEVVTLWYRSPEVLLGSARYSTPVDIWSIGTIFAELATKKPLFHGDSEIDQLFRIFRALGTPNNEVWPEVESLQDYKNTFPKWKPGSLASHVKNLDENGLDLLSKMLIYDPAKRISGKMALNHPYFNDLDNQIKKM
Chain of CDK1/Cyclin B1 (P14635 whole entry partner): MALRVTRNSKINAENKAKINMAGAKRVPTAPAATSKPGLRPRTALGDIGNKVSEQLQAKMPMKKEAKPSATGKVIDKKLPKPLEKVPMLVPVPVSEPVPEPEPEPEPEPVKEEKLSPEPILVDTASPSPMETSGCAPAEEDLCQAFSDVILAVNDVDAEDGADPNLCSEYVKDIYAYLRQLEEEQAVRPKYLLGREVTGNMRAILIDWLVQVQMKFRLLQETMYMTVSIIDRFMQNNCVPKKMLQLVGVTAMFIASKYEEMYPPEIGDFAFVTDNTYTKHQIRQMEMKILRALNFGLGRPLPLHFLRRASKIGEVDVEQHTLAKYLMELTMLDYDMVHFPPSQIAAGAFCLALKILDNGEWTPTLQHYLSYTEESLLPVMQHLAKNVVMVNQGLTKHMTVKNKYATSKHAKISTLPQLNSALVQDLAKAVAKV

Row | IC50 (CDK1/Cyclin B1) | IC50 (CDK2/Cyclin E1) | SMILES
1 | 1380 nM | 45 nM | O=C(O[C@H]1CC[C@@H](c2cc(Nc3ccc4c(c3F)CNS4(=O)=O)n[nH]2)C1)N1CCOCC1 (relative stereo) [Example 373, cis-3-(3-((4-fluoro-1,1-dioxido-2,3-dihydrobenzo[d]isothiazol-5-yl)amino)-1H-pyrazol-5-yl)cyclopentyl morpholine-4-carboxylate]
2 | 118 nM | 5.7 nM | CC1(NC(=O)O[C@H]2CC[C@@H](c3cc(Nc4ccc5c(c4F)CS(=O)(=O)N5)n[nH]3)C2)COC1 (relative stereo) [Example 374, cis-3-(3-((4-fluoro-2,2-dioxido-1,3-dihydrobenzo[c]isothiazol-5-yl)amino)-1H-pyrazol-5-yl)cyclopentyl(3-methyloxetan-3-yl)carbamate]
3 | 31 nM | 2.1 nM | COCC(C)(C)NC(=O)O[C@H]1CC[C@@H](c2cc(Nc3ccc4c(c3F)CS(=O)(=O)N4)n[nH]2)C1 (relative stereo) [Example 376, cis-3-(3-((4-fluoro-2,2-dioxido-1,3-dihydrobenzo[c]isothiazol-5-yl)amino)-1H-pyrazol-5-yl)cyclopentyl(1-methoxy-2-methylpropan-2-yl)carbamate]
4 | 496 nM | 9.3 nM | CC(C)NC(=O)O[C@H]1CO[C@@H](c2cc(Nc3ccc4c(c3F)CNS4(=O)=O)n[nH]2)C1 (relative stereo) [Example 378, 5-(3-((4-fluoro-1,1-dioxido-2,3-dihydrobenzo[d]isothiazol-5-yl)amino)-1H-pyrazol-5-yl)tetrahydrofuran-3-yl isopropylcarbamate]
5 | 230 nM | 4.5 nM | COCC(C)(C)NC(=O)O[C@H]1CC[C@@H](c2cc(Nc3ccc4c(c3F)CN(C)S4(=O)=O)n[nH]2)C1 (relative stereo) [Example 379, cis-3-(3-((4-fluoro-2-methyl-1,1-dioxido-2,3-dihydrobenzo[d]isothiazol-5-yl)amino)-1H-pyrazol-5-yl)cyclopentyl(1-methoxy-2-methylpropan-2-yl)carbamate]
6 | 138 nM | 1.9 nM | O=C(NC1(CO)CCC1)O[C@H]1CC[C@@H](c2cc(Nc3ccc4c(c3F)CNS4(=O)=O)n[nH]2)C1 (relative stereo) [Example 385, cis-3-(3-((4-fluoro-1,1-dioxido-2,3-dihydrobenzo[d]isothiazol-5-yl)amino)-1H-pyrazol-5-yl)cyclopentyl(1-(hydroxymethyl)cyclobutyl)carbamate]
7 | 74 nM | 1.3 nM | CC(C)NC(=O)O[C@H]1CC[C@@H](c2cc(Nc3ccc4c(c3F)CS(=O)(=O)N4CCCO)n[nH]2)C1 (relative stereo) [Example 389, cis-3-(3-((4-fluoro-1-(3-hydroxypropyl)-2,2-dioxido-1,3-dihydrobenzo[c]isothiazol-5-yl)amino)-1H-pyrazol-5-yl)cyclopentyl isopropylcarbamate]
8 | 10 nM | 1.1 nM | CC1(NC(=O)O[C@H]2CC[C@@H](c3cc(Nc4ccc5c(c4)CS(=O)(=O)N5)n[nH]3)C2)CCOC1 (relative stereo) [Example 392, cis-3-(3-((2,2-dioxido-1,3-dihydrobenzo[c]isothiazol-5-yl)amino)-1H-pyrazol-5-yl)cyclopentyl(3-methyltetrahydrofuran-3-yl)carbamate]
9 | 760 nM | 9.7 nM | Cc1nc2c(cc1Nc1cc([C@@H]3CC[C@H](OC(=O)NC(C)C)C3)[nH]n1)CNS2(=O)=O (relative stereo) [Example 396, cis-3-(3-((6-methyl-1,1-dioxido-2,3-dihydroisothiazolo[5,4-b]pyridin-5-yl)amino)-1H-pyrazol-5-yl)cyclopentyl isopropylcarbamate]
10 | 101 nM | 5.1 nM | CC1(NC(=O)O[C@H]2CC[C@@H](c3cc(Nc4ccc5c(c4F)CS(=O)(=O)N5)n[nH]3)C2)CCOCC1 (relative stereo) [Example 402, cis-3-(3-((4-fluoro-2,2-dioxido-1,3-dihydrobenzo[c]isothiazol-5-yl)amino)-1H-pyrazol-5-yl)cyclopentyl(4-methyltetrahydro-2H-pyran-4-yl)carbamate]
11 | 644 nM | 10 nM | CC(C)NC(=O)O[C@H]1CC[C@@H](c2cc(Nc3ccc4c(c3O)CNS4(=O)=O)n[nH]2)C1 (relative stereo) [Example 405, cis-3-(3-((4-hydroxy-1,1-dioxido-2,3-dihydrobenzo[d]isothiazol-5-yl)amino)-1H-pyrazol-5-yl)cyclopentyl isopropylcarbamate]
12 | > 10000 nM | 601 nM | CC(C)NC(=O)O[C@H]1CC[C@@H](c2cc(Nc3c(F)cc4c(c3O)CNS4(=O)=O)n[nH]2)C1 (relative stereo) [Example 406, cis-3-(3-((6-fluoro-4-hydroxy-1,1-dioxido-2,3-dihydrobenzo[d]isothiazol-5-yl)amino)-1H-pyrazol-5-yl)cyclopentyl isopropylcarbamate]

Further lines, the compound ahead of its results:

Row | SMILES | IC50 (CDK1/Cyclin B1) | IC50 (CDK2/Cyclin E1)
13 | CC1(NC(=O)O[C@H]2CC[C@@H](c3cc(Nc4ccc5c(c4F)CN(C4CC4)S5(=O)=O)n[nH]3)C2)COC1 (relative stereo) [Example 372, cis-3-(3-((2-cyclopropyl-4-fluoro-1,1-dioxido-2,3-dihydrobenzo[d]isothiazol-5-yl)amino)-1H-pyrazol-5-yl)cyclopentyl(3-methyloxetan-3-yl)carbamate] | 395 nM | 6.8 nM
14 | CC1(NC(=O)O[C@H]2CC[C@@H](c3cc(Nc4ccc5c(c4F)CS(=O)(=O)N5)n[nH]3)C2)CCOC1 (relative stereo) [Example 375, cis-3-(3-((4-fluoro-2,2-dioxido-1,3-dihydrobenzo[c]isothiazol-5-yl)amino)-1H-pyrazol-5-yl)cyclopentyl(3-methyltetrahydrofuran-3-yl)carbamate] | 95 nM | 4.6 nM
15 | COCC(C)(C)NC(=O)O[C@H]1CC[C@@H](c2cc(Nc3ccc4c(c3F)CS(=O)(=O)N4C)n[nH]2)C1 (relative stereo) [Example 377, cis-3-(3-((4-fluoro-1-methyl-2,2-dioxido-1,3-dihydrobenzo[c]isothiazol-5-yl)amino)-1H-pyrazol-5-yl)cyclopentyl(1-methoxy-2-methylpropan-2-yl)carbamate] | 45 nM | 1.1 nM
16 | O=C(O[C@H]1CC[C@@H](c2cc(Nc3ccc4c(c3)CS(=O)(=O)N4)n[nH]2)C1)N1CCOCC1 (relative stereo) [Example 382, cis-3-(3-((2,2-dioxido-1,3-dihydrobenzo[c]isothiazol-5-yl)amino)-1H-pyrazol-5-yl)cyclopentyl morpholine-4-carboxylate] | 214 nM | 9.7 nM
17 | CN1c2ccc(Nc3cc([C@@H]4CC[C@H](OC(=O)NC5(CO)CCC5)C4)[nH]n3)cc2CS1(=O)=O (relative stereo) [Example 386, cis-3-(3-((1-methyl-2,2-dioxido-1,3-dihydrobenzo[c]isothiazol-5-yl)amino)-1H-pyrazol-5-yl)cyclopentyl(1-(hydroxymethyl)cyclobutyl)carbamate] | 28 nM | 1 nM
18 | CC1(NC(=O)O[C@H]2CC[C@@H](c3cc(Nc4ccc5c(c4F)CS(=O)(=O)N5CCO)n[nH]3)C2)COC1 (relative stereo) [Example 390, cis-3-(3-((4-fluoro-1-(2-hydroxyethyl)-2,2-dioxido-1,3-dihydrobenzo[c]isothiazol-5-yl)amino)-1H-pyrazol-5-yl)cyclopentyl(3-methyloxetan-3-yl)carbamate] | 236 nM | 2.5 nM
19 | CC1(NC(=O)O[C@H]2CC[C@@H](c3cc(Nc4ccc5c(c4F)CS(=O)(=O)N5CCO)n[nH]3)C2)CCOC1 (relative stereo) [Example 393, cis-3-(3-((4-fluoro-1-(2-hydroxyethyl)-2,2-dioxido-1,3-dihydrobenzo[c]isothiazol-5-yl)amino)-1H-pyrazol-5-yl)cyclopentyl(3-methyltetrahydrofuran-3-yl)carbamate] | 119 nM | 1.9 nM
20 | COCC(C)(C)NC(=O)O[C@H]1CC[C@@H](c2cc(Nc3ccc4c(c3F)CS(=O)(=O)N4CCO)n[nH]2)C1 (relative stereo) [Example 394, cis-3-(3-((4-fluoro-1-(2-hydroxyethyl)-2,2-dioxido-1,3-dihydrobenzo[c]isothiazol-5-yl)amino)-1H-pyrazol-5-yl)cyclopentyl(1-methoxy-2-methylpropan-2-yl)carbamate] | 45 nM | 1.1 nM
21 | CC1(NC(=O)O[C@H]2CC[C@@H](c3cc(Nc4ccc5c(c4)CS(=O)(=O)N5)n[nH]3)C2)CCOCC1 (relative stereo) [Example 398, cis-3-(3-((2,2-dioxido-1,3-dihydrobenzo[c]isothiazol-5-yl)amino)-1H-pyrazol-5-yl)cyclopentyl(4-methyltetrahydro-2H-pyran-4-yl)carbamate] | 53 nM | 4.9 nM
22 | COCC(C)(C)NC(=O)O[C@H]1CC[C@@H](c2cc(Nc3ccc4c(c3F)CS(=O)(=O)N4C3CC3)n[nH]2)C1 (relative stereo) [Example 401, cis-3-(3-((1-cyclopropyl-4-fluoro-2,2-dioxido-1,3-dihydrobenzo[c]isothiazol-5-yl)amino)-1H-pyrazol-5-yl)cyclopentyl(1-methoxy-2-methylpropan-2-yl)carbamate] | 105 nM | 2.1 nM
23 | CC1(NC(=O)O[C@H]2CC[C@@H](c3cc(Nc4ccc5c(c4F)CS(=O)(=O)N5CC(F)(F)F)n[nH]3)C2)CCOC1 (relative stereo) [Example 407, cis-3-(3-((4-fluoro-2,2-dioxido-1-(2,2,2-trifluoroethyl)-1,3-dihydrobenzo[c]isothiazol-5-yl)amino)-1H-pyrazol-5-yl)cyclopentyl(3-methyltetrahydrofuran-3-yl)carbamate] | 129 nM | 1.6 nM
